In PubChem BioAssay (NCI):
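The compound was tested at five concentrations on cells cultured in 96-well plates, with a 48-hour exposure period. At the GI50, growth is halved. TGI denotes the concentration required for complete inhibition of growth.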

Experiments:
Assay in all cases: NCI anticancer screen, dose series, 48 h
NCI-H226 lung = tested on: NCI-H226 lung
NCI-H23 lung = tested on: NCI-H23 lung
NCI-H460 lung = tested on: NCI-H460 lung
NCI-H522 lung = tested on: NCI-H522 lung
NCI/ADR-RES ovarian = tested on: NCI/ADR-RES ovarian
OVCAR-3 ovarian = tested on: OVCAR-3 ovarian
OVCAR-5 ovarian = tested on: OVCAR-5 ovarian
OVCAR-8 ovarian = tested on: OVCAR-8 ovarian
PC-3 prostate = tested on: PC-3 prostate
RPMI-8226 leukemia = tested on: RPMI-8226 leukemia
RXF 393 renal = tested on: RXF 393 renal
SF-268 CNS = tested on: SF-268 CNS
SF-295 CNS = tested on: SF-295 CNS
SF-539 CNS = tested on: SF-539 CNS
SK-MEL-2 melanoma = tested on: SK-MEL-2 melanoma
SK-MEL-28 melanoma = tested on: SK-MEL-28 melanoma
SK-MEL-5 melanoma = tested on: SK-MEL-5 melanoma
SN12C renal = tested on: SN12C renal
SNB-19 CNS = tested on: SNB-19 CNS
SNB-75 CNS = tested on: SNB-75 CNS
SW-620 colon = tested on: SW-620 colon
T-47D breast = tested on: T-47D breast
TK-10 renal = tested on: TK-10 renal
U251 CNS = tested on: U251 CNS
UACC-257 melanoma = tested on: UACC-257 melanoma
UACC-62 melanoma = tested on: UACC-62 melanoma

CCN1C2=C(SC(=S)C1=C1SC(C(=O)OC)=C(C(=O)OC)S1)SC(=Nc1ccc(OC)cc1)C2=O
TGI (NCI-H226 lung): 5.26 µM
GI50 (NCI-H23 lung): 2.27 µM
TGI (NCI-H23 lung): 4.17 µM
GI50 (NCI-H460 lung): 2.02 µM
TGI (NCI-H460 lung): 4.65 µM
GI50 (NCI-H522 lung): 1.59 µM
TGI (NCI-H522 lung): 3.96 µM
GI50 (NCI/ADR-RES ovarian): 3.05 µM
TGI (NCI/ADR-RES ovarian): 7.19 µM
GI50 (OVCAR-3 ovarian): 1.79 µM
TGI (OVCAR-3 ovarian): 3.39 µM
GI50 (OVCAR-5 ovarian): 2.37 µM
TGI (OVCAR-5 ovarian): 6.19 µM
GI50 (OVCAR-8 ovarian): 2.82 µM
TGI (OVCAR-8 ovarian): > 100 µM
GI50 (PC-3 prostate): 3.01 µM
TGI (PC-3 prostate): > 100 µM
GI50 (RPMI-8226 leukemia): 2.38 µM
TGI (RPMI-8226 leukemia): 9.19 µM
GI50 (RXF 393 renal): 1.88 µM
TGI (RXF 393 renal): 3.98 µM
GI50 (SF-268 CNS): 2.56 µM
TGI (SF-268 CNS): 7.64 µM
GI50 (SF-295 CNS): 1.31 µM
TGI (SF-295 CNS): 3.55 µM
GI50 (SF-539 CNS): 1.86 µM
TGI (SF-539 CNS): 3.77 µM
GI50 (SK-MEL-2 melanoma): 2.09 µM
TGI (SK-MEL-2 melanoma): 5.29 µM
GI50 (SK-MEL-28 melanoma): 1.69 µM
TGI (SK-MEL-28 melanoma): 3.25 µM
GI50 (SK-MEL-5 melanoma): 1.63 µM
TGI (SK-MEL-5 melanoma): 3.08 µM
GI50 (SN12C renal): 2.76 µM
TGI (SN12C renal): > 100 µM
GI50 (SNB-19 CNS): 2.89 µM
TGI (SNB-19 CNS): 10.8 µM
GI50 (SNB-75 CNS): 1.1 µM
TGI (SNB-75 CNS): 2.53 µM
GI50 (SW-620 colon): 1.77 µM
TGI (SW-620 colon): 3.7 µM
GI50 (T-47D breast): 2.16 µM
TGI (T-47D breast): 5.88 µM
GI50 (TK-10 renal): 5.08 µM
TGI (TK-10 renal): > 100 µM
GI50 (U251 CNS): 1.65 µM
TGI (U251 CNS): 3.27 µM
GI50 (UACC-257 melanoma): 1.76 µM
TGI (UACC-257 melanoma): 3.87 µM
GI50 (UACC-62 melanoma): 1.73 µM
TGI (UACC-62 melanoma): 3.84 µM
